Assay results taken from US9072729B2, “Method for treating fibrosis and cancer with imidazolium and imidazolinium compounds” (Agency for Science, Technology and Research, priority 2008, dated 2015).

Tests used:
Format in all cases: cell-based, human
HLE cells [1] = experiment: Apoptosis assay (Annexin V-FITC/PI flow cytometry); details: 72 h, IBN-15 60 μM, IBN-19 90 μM, IBN-24 90 μM, IBN-25 30 μM, IBN-32 20 μM, DMSO 0.045%
Method: FIG. 36. IMSs induce apoptosis in Hepatocarcinoma cells. A) Cells were treated with vehicle and IBN 15, IBN 19, IBM 24, IBN 25 and IBN 32 for 72 h, and apoptosis was quantified using Annexin V-FITC/PI staining followed by flow cytometric analysis. 10,000 cells were detected for every sample. Living cells are in the bottom left quadrants (FITC− and PI−), early apoptotic cells in the bottom right quadrants (FITC+ and PI−), and late apoptotic cells in the upper right quadrants (apoptotic FITC+ and PI+). B) The percentage of apoptotic cells with respect to different IMSs.
To determine apoptosis analysis, 4×10^5 cells were plated in 10 cm dish. […] The floating and trypsinized adherent cells were collected and the apoptosis was quantified using Annexin V-FITC reagent (BD Biosciences Pharmingen) and PI (Invitrogen) following the manufacturer's protocol. Briefly, the cells were washed twice with cold PBS and then resuspend cell in 100 μl of × binding buffer containing a 10 μl of Annexin V-FITC (BD-Pharminagen) and 2 μl of PI from the stock of 100 μg/ml. The cells were gently vortexed and incubated for 15 min at room temperature in the dark. Subsequently 400 μl of 1× binding buffer were added to each tube, and the samples were immediately analyzed by FACScan flow cytometer (Becton Dickinson). The fluorescent signals of the Annexin-V conjugate and PI were detected at channels of fluorescence intensity FL1 and FL2 (BD LSR II with software BD).
Cells undergoing apoptosis would stain positive for Annexin and negative for PI (quadrant 4, Q4). Cells which stained positive for both Annexin V-FITC and PI (Q2) are either at the end stage of apoptosis or undergoing necrosis, and those which stained negative for both Annexin V-FITC and PI (Q3) were alive or undergoing undetectable apoptosis. In contrast, cell debris stained only for PI (Q1).

HLE cells [2] = experiment: Cell cycle analysis (PI flow cytometry); details: 72 h; for cells in the S phase: at respective IC-50, control 24%; for cells in the G2/M phase: at respective IC-50, control 30%; for cells in the G1 phase: at respective IC-50, control 50%
Method: FIG. 37. IMSs arrest Hepatocarcinoma cells. Cells were treated with vehicle and IBN 15, IBN 19, IBN 24, IBN 25 and IBN 32 for 72 h, and cell cycle distribution was assessed by flow cytometry. A) Example FACS profiles of propidium iodide-stained control cells, and cells treated with IMSs respectively. B) % of cells in cell cycle phase C) % of cells in subG0 population. Each value is the mean±S.D. of three determinations.
To perform cell cycle distribution analysis, 4×10^5 cells were plated in 10 cm dish. The cells (70% confluence) were serum-starved for 24 h to synchronize them in the G0 phase of the cell cycle. After 24 h incubation, the cells were replaced with fresh 10% DMEM medium and then treated 60 μM of IBN-15, 90 μM of IBN-19, 90 μM of IBN-24, 30 μM of […] and 20 μM of IBN-32) and 0.045% DMSO as control for 72 h. The floating and trypsinized adherent cells were collected and washed with PBS. The cell pellets were resuspended in 1 ml of PBS and fixed by the addition of 70% ice-cold ethanol and stored at −20° C. After incubation for 24 hr, the cells were re-pelleted by centrifugation, the cells were washed once with PBS and resuspended in 0.1 mL of PBS containing 100 μg/ml of RNase and then incubated at 37° C. for 15 min. Finally, the cells were stained with 0.5 ml of PI solution (100 μg/mL in PBS) for 30 min. Cell cycle distribution was detected by a BD FACS array flow cytometer (Becton Dickinson). Cells with sub-G0 DNA were classified as apoptotic cells.

HLE cells [3] = experiment: Growth inhibition assay (MTT), HLE; details: Homo sapiens
Method: The effect of IMSs (IBN-15, IBN-19, IBN-24, IBN-25 and IBN-32) on the proliferative properties of p53 mutant cell line HLE was examined. The cytotoxicity activity and proliferation inhibition of IMSs in tumor cells were measured by MTT. […] The control experiments with DMSO alone (0.05% v/v) had no effect on cell proliferation. […] (Table 4) Microscopic observation on the cell cultures visually confirmed the inhibition on cell proliferation by IMSs. (FIG. 35)

[Br-].c1ccc(Cn2c[n+](Cc3ccccc3)cc2-c2ccccc2)cc1 [IBN-15, 1,3-Dibenzyl-5-phenylimidazolium bromide]
cell apoptosis (Q2) (HLE cells [1]): 33%
cells in the S phase (HLE cells [2]): 19.7%
cells in the G2/M phase (HLE cells [2]): 21%
cells in the G1 phase (HLE cells [2]): 42%
IC50 (HLE cells [3]; 72 h): 60 µM
IC50 (HLE cells [3]; 120 h): 20 µM

[Br-].c1ccc(CCn2cc[n+](CCc3ccccc3)c2)cc1 [IBN-32, 1,3-di(2-phenylethyl)-imidazolium bromide]
cell apoptosis (Q2) (HLE cells [1]): 18%
cells in the S phase (HLE cells [2]): 14.6%
cells in the G2/M phase (HLE cells [2]): 18.9%
cells in the G1 phase (HLE cells [2]): 32.3%
IC50 (HLE cells [3]; 72 h): 20 µM
IC50 (HLE cells [3]; 120 h): 20 µM
